Measured values from patent US20210308101A1, “METHODS OF TREATING FIBROMYALGIA” (Aptinyx Inc., priority 2019, published 2021).

System: visual stimulus-evoked brain activation
Test: fMRI of visual stimulation, BOLD activations
Type: in vivo, human
Conditions: either dose relative to baseline or placebo
Excerpt: As used herein, “Functional Magnetic Resonance Imaging of Evoked Pain and Visual Stimulation” refers to the following procedure. During evoked pain and visual stimulation fMRI paradigms, participants were lying in the scanner as they received either pressure stimulation to their calf muscle or they experienced an unpleasant visual stimulus. For both pain and visual stimulation, whole-brain Blood Oxygenation Level Dependent (BOLD) functional images were acquired.
Neural mechanisms of this multimodal hypersensitivity were assessed using fMRI. Whole brain BOLD functional images were acquired. The visual stimulation task was 3 minutes in duration and consisted of 2 different visual stimuli presented in a block design. The control stimulus was a fixed crosshair centered in the middle of a solid color background, whereas the experimental stimulus was a flashing annulus checkerboard (8 Hz frequency) (see below figure of example of visual stimuli). […]
Several analyses were conducted with the fMRI resting state and task data. Results were assessed by: 1) a primary analysis, where a finding was deemed significant with a corrected cluster level p<0.05, derived from an uncorrected voxel-wise p<0.001, and 2) an exploratory analysis, where a finding was deemed significant with an uncorrected voxel-wise p<0.005 and having a cluster greater than or equal to 80 contiguous voxels. […]

CC(C)C(=O)N1CCC[C@]12CN([C@H](C(N)=O)[C@@H](C)O)C2=O [NYX-2925, (2S, 3R)-3-hydroxy-2-((R)-5-isobutyryl-1-oxo-2,5-diazaspiro[3.4]octan-2-yl)butanamide]
BOLD activation, visual task: No significant or marginal changes in BOLD activation
